The values below come from patent US20250270190A1, “KIT INHIBITORS” (BLUEPRINT MEDICINES CORPORATION, priority 2022, published 2025).

T1 sequence (P10721 26-976 V560G/V654A): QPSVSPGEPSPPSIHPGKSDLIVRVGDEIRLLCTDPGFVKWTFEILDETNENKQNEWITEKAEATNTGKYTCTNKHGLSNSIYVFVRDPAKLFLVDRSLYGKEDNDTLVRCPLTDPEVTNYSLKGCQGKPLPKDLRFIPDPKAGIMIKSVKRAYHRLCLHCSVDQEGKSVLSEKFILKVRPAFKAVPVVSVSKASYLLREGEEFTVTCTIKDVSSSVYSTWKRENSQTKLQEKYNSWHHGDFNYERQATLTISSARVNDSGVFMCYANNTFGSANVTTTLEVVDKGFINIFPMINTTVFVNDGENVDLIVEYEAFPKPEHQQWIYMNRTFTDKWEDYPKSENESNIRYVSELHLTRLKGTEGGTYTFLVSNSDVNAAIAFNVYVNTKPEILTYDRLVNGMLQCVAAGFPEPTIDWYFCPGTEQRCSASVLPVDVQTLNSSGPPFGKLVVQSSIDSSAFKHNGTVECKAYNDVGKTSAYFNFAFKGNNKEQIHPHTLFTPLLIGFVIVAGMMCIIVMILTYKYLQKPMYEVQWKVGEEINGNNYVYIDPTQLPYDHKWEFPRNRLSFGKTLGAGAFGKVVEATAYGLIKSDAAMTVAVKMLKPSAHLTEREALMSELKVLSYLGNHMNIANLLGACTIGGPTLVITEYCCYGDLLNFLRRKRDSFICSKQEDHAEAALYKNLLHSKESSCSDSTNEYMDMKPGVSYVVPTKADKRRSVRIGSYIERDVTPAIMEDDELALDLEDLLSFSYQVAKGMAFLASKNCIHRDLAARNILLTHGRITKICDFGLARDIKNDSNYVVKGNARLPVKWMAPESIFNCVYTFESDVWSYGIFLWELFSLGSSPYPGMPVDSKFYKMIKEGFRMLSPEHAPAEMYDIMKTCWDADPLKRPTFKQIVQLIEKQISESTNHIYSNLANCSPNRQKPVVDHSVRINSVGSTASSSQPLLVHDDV

This test addresses T1, c-kit autophosphorylation (Phospho c-Kit Tyr721) in HMC 1.1 (exon 11/13) cells, V654A (Homo sapiens, UniProt P10721, V560G/V654A).
T1 construct: endogenous in cells; host or cells: HMC 1.1 (exon 11/13) cells
The test is described as follows: pKIT Meso Scale Discovery (MSD) assay, inhibition of autophosphorylation of KIT, HMC1.1_V654A. The following applies: Table 1, cell line not named for Table 1, b1056 names pKIT HMC1.1_V654A, read-out: Code (IC50 for inhibition of autophosphorylation of KIT, pKIT MSD assay). The class given is cell-based. An excerpt: In this MSD assay, specific capture antibodies for the analytes were coated in arrays in each well of a 96-well carbon electrode plate surface. The detection system used SULFO-TAG™ labels that emit light upon electrochemical stimulation initiated at the electrode surfaces of the […] and MULTI-SPOT® plates. The electrical stimulation was decoupled from the output signal, which was light and generated assays with minimal background. The goal of this assay was to assess the percent inhibition of autophosphorylation of c-kit in cells when treated with compounds of the disclosure in a dose-dependent manner.
HMC1.1 cells were maintained in IMDM media supplemented with 20% Calf Serum with Iron and 100 units/mL Penicillin-Streptomycin and grown in a 37° C. humidified tissue culture incubator. HMC1.1 cells were passaged by 1:5 dilution into fresh IMDM media supplemented with 20% Calf Serum with Iron and 100 units/mL Penicillin-Streptomycin every 5-7 days and were discarded after 20 passages.
Seeding was performed as follows: HMC cells were brought to 1×10^6 cells/mL in fresh phenol red free, serum-free, iron-free IDM media with Pen/Strep; cells were seeded/plated into respective U-bottom plate by dispensing 50 μL/well (50,000 cells) using the Multidrop, and covered and incubated cells at 37° C. in a humidified tissue culture incubator for 4 hours (starvation).
Dosing was performed as follows: The compound mother plate was prepared by adding 16 μL of compound to 24 μL of DMSO to row A, odd-numbered columns of screen matrix plate. […] Intermediate plates were prepared in V-bottom plates by dispensing 98 μL of phenol red free, serum free IMDM media with Pen/Strep into all wells. 2 μL DMSO or 2 μL 10 mM staurosporine was added to appropriate control wells. At the end of four hours, the Bravo protocol 10 cpds vertical dose MSD 2 U-plates 96-well was used to: add 2 μL from the compound plate to the intermediate plate and dose cells with 7 μL from the intermediate plate. The cells were covered and incubated at 37° C. in a humidified tissue culture incubator for 90 min. The complete lysis buffer was prepared with AlphaLISA 5× Lysis Buffer supplemented with 1× protease inhibitor cocktail and kept on ice. The cells were pelleted by centrifuging plate at 2500×g for 5 min, 4° C. and media removed. Complete lysis buffer was added (14 μL/well). The cells were covered and shaken at 4° C. on a plate shaker at 600 rpm for 30 min and kept cold
The MSD protocol was preformed as follows: Tris Wash Buffer (2L) was prepared by diluting 10× stock of Tris Wash Buffer to 1× in water. Blocking Solution was prepared by dissolving 600 mg Blocker A in 20 mL 1× Trish Wash Buffer (per plate). The Antibody Dilution Buffer was prepared by mixing 1 mL Blocking solution and 2 mL 1× Trish Wash Buffer (per plate) and kept on ice. Blocking Solution was added (150 μL/well) to each MSD plate using a multichannel repeater pipette. The plate was covered and incubated at room temperature on a plate shaker at 700 rpm for hr. The Bio Tek protocol RL-96w-wash-MSD_stacker_fromC was used to wash plates 3× with 150 μL/well. Cells were pelleted by centrifuging lysate plates at 2500×g for 5 mins. The Bravo protocol was used (transfer 25 ul supernatants from V-96 to assay plate) to transfer 25 μL sample lysate per well to each MSD plate. The plates were covered and incubated at room temperature on a plate shaker at 700 rpm for hr. The Bio Tek protocol RL-96w-wash-MSD_stacker_fromC was used to wash plates 3× with 150 μL/well. The Detection Antibody Solution was prepared by diluting the 60 μL of the 50× antibody stock in 2.94 mL of the Antibody Dilution Buffer (per plate) and kept on ice. 25 μL/well of detection antibody solution was added to each MSD plate. The plates were covered and incubated at room temperature on a plate shaker at 700 rpm for 1 hr. The Read Buffer was prepared by diluting 5 mL of 4× stock of Read Buffer to 1× in 15 mL water (per plate).
Consider `Nc1cc(Nc2cc(OC3CC3)c(-c3cnn([C@H]4CCNC4)c3)cn2)nc(C(F)F)n1` (single isomer, unassigned) [Compound 159, (S)-N4-(4-cyclopropoxy-5-(1-(pyrrolidin-3-yl)-1H-pyrazol-4-yl)pyridin-2-yl)-2-(difluoromethyl)pyrimidine-4,6-diamine or (R)-N4-(4-cyclopropoxy-5-(1-(pyrrolidin-3-yl)-1H-pyrazol-4-yl)pyridin-2-yl)-2-(difluoromethyl)pyrimidine-4,6-diamine], for which the 50% inhibitory concentration (IC50) is < 0.01 µM.

For the molecule `CCNc1cc(Nc2cc(N)nc(C(F)F)n2)ncc1C(=O)NC12CC(CO)(C1)C2` [Compound 151, 6-((6-amino-2-(difluoromethyl)pyrimidin-4-yl)amino)-4-(ethylamino)-N-(3-(hydroxymethyl)bicyclo[1.1.1]pentan-1-yl)nicotinamide], the IC50 was < 0.01 µM.

In the case of “6-((6-amino-4-(difluoromethyl)pyridin-2-yl)amino)-4-(((1R,2S)-2-fluorocyclopropyl)amino)-N-methylnicotinamide [Compound 44]”, the IC50 lay within 0.01 to 0.04 µM.

As for `CCCNC(=O)c1cnc(Nc2cc(N)nc(C(F)F)n2)cc1NC(C)C` [Compound 67, 6-((6-amino-2-(difluoromethyl)pyrimidin-4-yl)amino)-4-(isopropylamino)-N-propylnicotinamide], the IC50 was < 0.01 µM.

Turning to `CCOc1cc(Nc2cc(N)nc(C(F)F)n2)ncc1-c1cnn(C2CNC2)c1` [Compound 98, N4-(5-(1-(azetidin-3-yl)-1H-pyrazol-4-yl)-4-ethoxypyridin-2-yl)-2-(difluoromethyl)pyrimidine-4,6-diamine], the IC50 is 0.01 to 0.04 µM.

With `Nc1cc(Nc2cc(OC(F)F)c(-c3cnn(CCN4CCC4)c3)cn2)nc(C(F)F)n1` [Compound 191, N4-(5-(1-(2-(azetidin-1-yl)ethyl)-1H-pyrazol-4-yl)-4-(difluoromethoxy)pyridin-2-yl)-2-(difluoromethyl)pyrimidine-4,6-diamine], the IC50 is < 0.01 µM.

Take `Nc1cc(Nc2cc(NC3CC3)c(C(=O)NC3CC3)cn2)nc(C(F)F)n1` [Compound 57, 6-((6-amino-2-(difluoromethyl)pyrimidin-4-yl)amino)-N-cyclopropyl-4-(cyclopropylamino)nicotinamide]: the IC50 was < 0.01 µM.

Regarding `CC(C)Nc1cc(Nc2cc(N)nc(C(F)F)n2)ncc1C(=O)NCc1ncco1` [Compound 148, 6-((6-amino-2-(difluoromethyl)pyrimidin-4-yl)amino)-4-(isopropylamino)-N-(oxazol-2-ylmethyl)nicotinamide], the half-maximal inhibitory concentration (IC50) was < 0.01 µM.

Consider `CNC(=O)c1cnc(Nc2cc(N)nc(C(F)F)n2)cc1NCC(F)(F)F` [Compound 82, 6-((6-amino-2-(difluoromethyl)pyrimidin-4-yl)amino)-N-methyl-4-((2,2,2-trifluoroethyl)amino)nicotinamide], for which the IC50 was < 0.01 µM.

For `CNC(=O)c1cnc(Nc2cc(N)nc([C@H](C)F)n2)cc1NC1CC1` [Compound 15, (S)-6-((6-amino-2-(1-fluoroethyl)pyrimidin-4-yl)amino)-4-(cyclopropylamino)-N-methylnicotinamide], the IC50 lay within 0.01 to 0.04 µM.

Take `Cn1cc(-c2cnc(Nc3cc(N)nc(C(F)F)n3)cc2OCC2CCO2)cn1` (stereo not shown) [Compound 105, 2-(difluoromethyl)-N4-(5-(1-methyl-1H-pyrazol-4-yl)-4-(oxetan-2-ylmethoxy)pyridin-2-yl)pyrimidine-4,6-diamine]: the half-maximal inhibitory concentration (IC50) is 0.01 to 0.04 µM.

Regarding `CNC(=O)c1cnc(Nc2cc(N)nc(CF)n2)cc1NC(C)CF` (single isomer, unassigned) [Compound 27, (S)-6-((6-amino-2-(fluoromethyl)pyrimidin-4-yl)amino)-4-((1-fluoropropan-2-yl)amino)-N-methylnicotinamide or (R)-6-((6-amino-2-(fluoromethyl)pyrimidin-4-yl)amino)-4-((1-fluoropropan-2-yl)amino)-N-methylnicotinamide], the IC50 lay in the range of 0.01 to 0.04 µM.

`CCNc1cc(Nc2cc(N)nc(C(F)F)n2)ncc1C(=O)NC1CC2(CNC2)C1` [Compound 149, 6-((6-amino-2-(difluoromethyl)pyrimidin-4-yl)amino)-4-(ethylamino)-N-(2-azaspiro[3.3]heptan-6-yl)nicotinamide]: the IC50 is > 0.04 µM.

In the case of `COc1cc(Nc2cc(N)nc(C(F)F)n2)ncc1-c1cnn(C[C@H]2CCN2)c1` (single isomer, unassigned) [Compound 101, (R)-N4-(5-(1-(azetidin-2-ylmethyl)-1H-pyrazol-4-yl)-4-methoxypyridin-2-yl)-2-(difluoromethyl)pyrimidine-4,6-diamine or (S)-N4-(5-(1-(azetidin-2-ylmethyl)-1H-pyrazol-4-yl)-4-methoxypyridin-2-yl)-2-(difluoromethyl)pyrimidine-4,6-diamine], the IC50 is > 0.04 µM.

Turning to `CNCCn1cc(-c2cnc(Nc3cc(N)nc(C(F)F)n3)cc2OC2COC2)cn1` [Compound 175, 2-(difluoromethyl)-N4-(5-(1-(2-(methylamino)ethyl)-1H-pyrazol-4-yl)-4-(oxetan-3-yloxy)pyridin-2-yl)pyrimidine-4,6-diamine], the IC50 is > 0.04 µM.

Regarding `CC(O)Cn1cc(-c2cnc(Nc3cc(N)nc(C(F)F)n3)cc2OC(F)F)cn1` (stereo not shown) [Compound 155, 1-(4-(6-((6-amino-2-(difluoromethyl)pyrimidin-4-yl)amino)-4-(difluoromethoxy)pyridin-3-yl)-1H-pyrazol-1-yl)propan-2-ol], the half-inhibitory concentration (IC50) was < 0.01 µM.

For “6-((6-amino-4-(difluoromethyl)pyridin-2-yl)amino)-4-(((1S,2R)-2-fluorocyclopropyl)amino)-N-methylnicotinamide [Compound 45]”, the IC50 lay within 0.01 to 0.04 µM.

Consider `CNc1cc(Nc2cc(N)nc(C(F)F)n2)ncc1C(=O)NC1CC1` [Compound 24, 6-((6-amino-2-(difluoromethyl)pyrimidin-4-yl)amino)-N-cyclopropyl-4-(methylamino)nicotinamide], for which the half-maximal inhibitory concentration (IC50) was < 0.01 µM.

Consider `CCOc1cc(Nc2cc(N)nc(C(F)F)n2)ncc1-c1cnn(CCN)c1` [Compound 81, N4-(5-(1-(2-aminoethyl)-1H-pyrazol-4-yl)-4-ethoxypyridin-2-yl)-2-(difluoromethyl)pyrimidine-4,6-diamine], for which the IC50 fell in the range of 0.01 to 0.04 µM.

For the molecule `Cn1cc(-c2cnc(Nc3cc(N)nc(C(F)F)n3)cc2OCCCO)cn1` [Compound 83, 3-((2-((6-amino-2-(difluoromethyl)pyrimidin-4-yl)amino)-5-(1-methyl-1H-pyrazol-4-yl)pyridin-4-yl)oxy)propan-1-ol], the IC50 was 0.01 to 0.04 µM.

As to `COCCn1cc(-c2cnc(Nc3cc(N)nc(C(F)F)n3)cc2OC)cn1` [Compound 84, 2-(difluoromethyl)-N4-(4-methoxy-5-(1-(2-methoxyethyl)-1H-pyrazol-4-yl)pyridin-2-yl)pyrimidine-4,6-diamine], the IC50 was < 0.01 µM.

For the molecule `CCNC(=O)c1cnc(Nc2cc(N)nc(C(F)F)n2)cc1N[C@H](C)CF` [Compound 72, (R)-6-((6-amino-2-(difluoromethyl)pyrimidin-4-yl)amino)-N-ethyl-4-((1-fluoropropan-2-yl)amino)nicotinamide], the half-inhibitory concentration (IC50) is < 0.01 µM.

What is called IC50 is the concentration that inhibits the measured activity by half.
